Assay results reported in patent US20100063065A1 (Inpharmatica Limited, priority 2005, published 2010).

Each molecule was assayed against T1, PPARδ (Homo sapiens, UniProt Q03181) (assay: Transactivation assay (PPARδ GAL4 assay) in transiently transfected HEK293 cells). Conditions: luciferase reporter, Table 1.
T1 construct: fused to amino acids 147-441 of PPARδ downstream of CMV promoter; expressed in transfected cells; host or cells: HEK293 cells, transiently transfected with pFACMV-PPARδ using Fugene
T1 sequence (Q03181 147-441): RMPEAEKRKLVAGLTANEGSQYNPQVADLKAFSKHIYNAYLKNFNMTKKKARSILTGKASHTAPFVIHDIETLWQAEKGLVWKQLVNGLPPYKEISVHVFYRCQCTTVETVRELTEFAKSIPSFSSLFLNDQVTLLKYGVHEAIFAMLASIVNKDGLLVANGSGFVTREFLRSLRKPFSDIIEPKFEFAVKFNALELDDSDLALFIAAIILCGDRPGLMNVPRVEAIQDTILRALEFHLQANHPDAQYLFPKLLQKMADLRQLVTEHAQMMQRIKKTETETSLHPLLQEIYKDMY
Format: cell-based
How it was run: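 Luciferase luminescence after 24 h compound treatment (0-30 μM final, OptiMEM, 37° C./5% CO2) gave EC50 by sigmoidal fitting, with activity normalised to GW501516 as percent. Reporter system: transiently transfected HEK293 expressing GAL4 DNA-binding domain fused to human PPARδ aa 147-441, plus 5×GAL4-driven luciferase.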
An EC50 of 100 to 1000 nM was found for `CCc1cc(C(=O)c2ccc(OC(F)(F)F)cc2)c(NC(=O)CSc2ccc(OCC(=O)O)c(C)c2)s1` [Example 94, (4-{[5-Ethyl-3-(4-trifluoromethoxy-benzoyl)-thiophen-2-ylcarbamoyl]-methylsulfanyl}-2-methyl-phenoxy)-acetic acid] in this work. An EC50 of 100 to 1000 nM was found for `CCc1cc(C(=O)c2ccc(OC(F)(F)F)cc2)c(NC(=O)CSc2ccc(OC(C)(C)C(=O)O)cc2)s1` [Example 95, 2-(4-{[5-Ethyl-3-(4-trifluoromethoxy-benzoyl)-thiophen-2-ylcarbamoyl]-methylsulfanyl}-phenoxy)-2-methyl-propionic acid] in this work. An EC50 of 100 to 1000 nM was found for `CCc1cc(C(=O)c2ccc(OC(F)(F)F)cc2)c(NC(=O)CSc2ccc(CCC(=O)O)cc2)s1` [Example 96, 3-(4-{[5-Ethyl-3-(4-trifluoromethoxy-benzoyl)-thiophen-2-ylcarbamoyl]-methylsulfanyl}-phenyl)-propionic acid] in this work. An EC50 of 100 to 1000 nM was found for `CCc1cc(C(=O)c2ccc(Cl)cc2)c(NC(=O)c2ccc(OCC(=O)O)cc2)s1` [Example 97, {4-[3-(4-Chloro-benzoyl)-5-ethyl-thiophen-2-ylcarbamoyl]-phenoxy}-acetic acid] in this work. An EC50 of 100 to 1000 nM was found for `CCc1cc(C(=O)c2ccc(OC(F)(F)F)cc2)c(NC(=O)c2cccc(SCC(=O)O)c2)s1` [Example 98, {3-[5-Ethyl-3-(4-trifluoromethoxy-benzoyl)-thiophen-2-ylcarbamoyl]-phenylsulfanyl}-acetic acid] in this work. `CCc1cc(C(=O)c2ccc(OC(F)(F)F)cc2)c(NC(=O)c2ccc(OCC(=O)O)cc2)s1` [Example 99, {4-[5-Ethyl-3-(4-trifluoromethoxy-benzoyl)-thiophen-2-ylcarbamoyl]-phenoxy}-acetic acid] was tested, and the EC50 was < 100 nM. An EC50 of 100 to 1000 nM was found for `CCc1cc(C(=O)c2ccc(OC(F)(F)F)cc2)c(NC(=O)c2cccc(OCC(=O)O)c2)s1` [Example 100, {3-[5-Ethyl-3-(4-trifluoromethoxy-benzoyl)-thiophen-2-ylcarbamoyl]-phenoxy}-acetic acid] in this work. `CCc1cc(C(=O)c2ccc(OC(F)(F)F)cc2)c(NC(=O)c2ccc(OCC(=O)O)c(C)c2)s1` [Example 101, {4-[5-Ethyl-3-(4-trifluoromethoxy-benzoyl)-thiophen-2-ylcarbamoyl]-2-methyl-phenoxy}-acetic acid] was tested, and the EC50 was < 100 nM. An EC50 of 100 to 1000 nM was found for `CCc1cc(C(=O)c2ccc(OC(F)(F)F)cc2)c(NC(=O)c2ccc(OC(C)(C)C(=O)O)cc2)s1` [Example 102, 2-{4-[5-Ethyl-3-(4-trifluoromethoxy-benzoyl)-thiophen-2-ylcarbamoyl]-phenoxy}-2-methyl-propionic acid] in this work. An EC50 of 100 to 1000 nM was found for `CCc1cc(C(=O)c2ccc(OC(F)(F)F)cc2)c(NC(=O)c2ccc(SCC(=O)O)cc2)s1` [Example 103, {4-[5-Ethyl-3-(4-trifluoromethoxy-benzoyl)-thiophen-2-ylcarbamoyl]-phenylsulfanyl}-acetic acid] in this work.

Same assay, conditions: luciferase reporter, Table 2
An EC50 of 100 to 1000 nM was found for `CCc1cc(C(=O)c2ccc(OC(F)(F)F)cc2)c(NC(=O)CCCC(=O)O)s1` [Example 104, 4-[5-Ethyl-3-(4-trifluoromethoxy-benzoyl)-thiophen-2-ylcarbamoyl]-butyric acid] in this work. An EC50 of 100 to 1000 nM was found for `CCc1cc(C(=O)c2ccc(OC(F)(F)F)cc2)c(NC(=O)CCCSCC(=O)O)s1` [Example 105, {3-[5-Ethyl-3-(4-trifluoromethoxy-benzoyl)-thiophen-2-ylcarbamoyl]-propylsulfanyl}-acetic acid] in this work. `CCc1cc(C(=O)c2ccc(OC(F)(F)F)cc2)c(NC(=O)C(C)SCC(=O)O)s1` (centres unmarked) [Example 106, {1-[5-Ethyl-3-(4-trifluoromethoxy-benzoyl)-thiophen-2-ylcarbamoyl]-ethylsulfanyl}-acetic acid] was tested, and the EC50 was < 100 nM. An EC50 of 100 to 1000 nM was found for `CCc1cc(C(=O)c2ccc(OC(F)(F)F)cc2)c(NC(=O)C(C)(C)SCC(=O)O)s1` [Example 107, {1-[5-Ethyl-3-(4-trifluoromethoxy-benzoyl)-thiophen-2-ylcarbamoyl]-1-methyl-ethylsulfanyl}-acetic acid] in this work. `CCc1cc(C(=O)c2ccc(OC(F)(F)F)cc2)c(NC(=O)C(C)(C)SC(C)C(=O)O)s1` (centres unmarked) [Example 108, 2-{1-[5-Ethyl-3-(4-trifluoromethoxy-benzoyl)-thiophen-2-ylcarbamoyl]-1-methyl-ethylsulfanyl}-propionic acid] was tested, and the EC50 was < 100 nM. With `CCc1cc(C(=O)c2ccc(OC(F)(F)F)cc2)c(NC(=O)C(CC)SCC(=O)O)s1` (centres unmarked) [Example 109, {1-[5-Ethyl-3-(4-trifluoromethoxy-benzoyl)-thiophen-2-ylcarbamoyl]-propylsulfanyl}-acetic acid] the EC50 was < 100 nM. With `CCc1cc(C(=O)c2ccc(OC(F)(F)F)cc2)c(NC(=O)C(CC)SC(C)C(=O)O)s1` (centres unmarked) [Example 110, 2-{1-[5-Ethyl-3-(4-trifluoromethoxy-benzoyl)-thiophen-2-ylcarbamoyl]-propylsulfanyl}-propionic acid] the EC50 was < 100 nM. An EC50 of 100 to 1000 nM was found for `CCc1cc(C(=O)c2ccc(OC)cc2)c(NC(=O)CSC(C)C(=O)O)s1` (centres unmarked) [Example 111, 2-{[5-Ethyl-3-(4-methoxy-benzoyl)-thiophen-2-ylcarbamoyl]-methylsulfanyl}-propionic acid] in this work. For `CCc1cc(C(=O)c2ccc(OC(F)(F)F)cc2)c(NC(=O)CSC(C)C(=O)O)s1` (centres unmarked) [Example 112, 2-{[5-Ethyl-3-(4-trifluoromethoxy-benzoyl)-thiophen-2-ylcarbamoyl]-methylsulfanyl}-propionic acid], the EC50 was < 100 nM. `CCc1cc(C(=O)c2ccc(OC(F)(F)F)cc2)c(NC(=O)C(SCC(=O)O)c2ccccc2)s1` (centres unmarked) [Example 113, {[5-Ethyl-3-(4-trifluoromethoxy-benzoyl)-thiophen-2-ylcarbamoyl]-phenyl-methylsulfanyl}-acetic acid] was tested, and the EC50 was < 100 nM. An EC50 of 100 to 1000 nM was found for `CCc1cc(C(=O)c2ccc(OC(F)(F)F)cc2)c(NC(=O)C(SCC(=O)O)C(C)C)s1` (centres unmarked) [Example 114, {1-[5-Ethyl-3-(4-trifluoromethoxy-benzoyl)-thiophen-2-ylcarbamoyl]-2-methyl-propylsulfanyl}-acetic acid] in this work. An EC50 of 100 to 1000 nM was found for `CCc1cc(C(=O)c2ccc(OC(F)(F)F)cc2)c(NC(=O)c2ccc(NCC(=O)O)cc2)s1` [Example 115, {4-[5-Ethyl-3-(4-trifluoromethoxy-benzoyl)-thiophen-2-ylcarbamoyl]-phenylamino}-acetic acid] in this work. An EC50 of 100 to 1000 nM was found for `CCc1cc(C(=O)c2ccc(OC(F)(F)F)cc2)c(NC(=O)c2ccc(CCC(=O)O)cc2)s1` [Example 116, 3-{4-[5-Ethyl-3-(4-trifluoromethoxy-benzoyl)-thiophen-2-ylcarbamoyl]-phenyl}-propionic acid] in this work. An EC50 of 1000 to 30000 nM was found for `CCc1cc(C(=O)c2ccc(OC(F)(F)F)cc2)c(NC(=O)COc2ccc(OCC(=O)O)cc2)s1` [Example 117, (4-{[5-Ethyl-3-(4-trifluoromethoxy-benzoyl)-thiophen-2-ylcarbamoyl]-methoxy}-phenoxy)-acetic acid] in this work. An EC50 of 100 to 1000 nM was found for `CCc1cc(C(=O)c2ccc(OC(F)(F)F)cc2)c(NC(=O)C(C)(C)NCC(=O)O)s1` [Example 118, {1-[5-Ethyl-3-(4-trifluoromethoxy-benzoyl)-thiophen-2-ylcarbamoyl]-1-methyl-ethylamino}-acetic acid] in this work. An EC50 of 100 to 1000 nM was found for `CCc1cc(C(=O)c2ccc(OC(F)(F)F)cc2)c(NC(=O)C(C)(C)N2CCC[C@@H]2C(=O)O)s1` [Example 119, (R)-1-{1-[5-Ethyl-3-(4-trifluoromethoxy-benzoyl)-thiophen-2-ylcarbamoyl]-1-methyl-ethyl}-pyrrolidine-2-carboxylic acid] in this work. In the case of `CCc1cc(C(=O)c2ccc(OC(F)(F)F)cc2)c(NC(=O)C(CC)N2CCC[C@@H]2C(=O)O)s1` (stereo partly drawn) [Example 120, (R)-1-{1-[5-Ethyl-3-(4-trifluoromethoxy-benzoyl)-thiophen-2-ylcarbamoyl]-propyl}-pyrrolidine-2-carboxylic acid], the EC50 is reported as < 100 nM. An EC50 of 100 to 1000 nM was found for `CCc1cc(C(=O)c2ccc(OC(F)(F)F)cc2)c(NC(=O)C(CC)NCC(=O)O)s1` (centres unmarked) [Example 121, {1-[5-Ethyl-3-(4-trifluoromethoxy-benzoyl)-thiophen-2-ylcarbamoyl]-propylamino}-acetic acid] in this work. An EC50 of 100 to 1000 nM was found for `CCc1cc(C(=O)c2ccc(OC(F)(F)F)cc2)c(NC(=O)C(NCC(=O)O)c2ccccc2)s1` (centres unmarked) [Example 122, ({[5-Ethyl-3-(4-trifluoromethoxy-benzoyl)-thiophen-2-ylcarbamoyl]-phenyl-methyl}-amino)-acetic acid] in this work. In the case of `CCc1cc(C(=O)c2ccc(OC(F)(F)F)cc2)c(NC(=O)C(C)N2CCC[C@@H]2C(=O)O)s1` (stereo partly drawn) [Example 123, (R)-1-{1-[5-Ethyl-3-(4-trifluoromethoxy-benzoyl)-thiophen-2-ylcarbamoyl]-ethyl}-pyrrolidine-2-carboxylic acid], the EC50 is reported as < 100 nM. An EC50 of 100 to 1000 nM was found for `CCc1cc(C(=O)c2ccc(OC(F)(F)F)cc2)c(NC(=O)C(c2ccccc2)N2CCC[C@@H]2C(=O)O)s1` (stereo partly drawn) [Example 124, (R)-1-{[5-Ethyl-3-(4-trifluoromethoxy-benzoyl)-thiophen-2-ylcarbamoyl]-phenyl-methyl}-pyrrolidine-2-carboxylic acid] in this work. An EC50 of 100 to 1000 nM was found for `CCc1cc(C(=O)c2ccc(OC(F)(F)F)cc2)c(NC(=O)CN(CC)[C@@H](C)C(=O)O)s1` [Example 125, (S)-2-(Ethyl-{[5-ethyl-3-(4-trifluoromethoxy-benzoyl)-thiophen-2-ylcarbamoyl]-methyl}-amino)-propionic acid] in this work.
